# Results taken from the supplement of paper PMC12463676, “Small-molecule dissolution of stress granules by redox modulation benefits ALS models” (Nature Chemical Biology, 2025).
# Compound: NC(=O)CCCCC1CCSS1 [lipoamide]
# Assay: thermal stability z-score vs DMSO; higher = more thermally stabilized by treatment
# Conditions: HeLa; lipoamide concentration 100 µM; arsenate co-treatment: 1 mM arsenate 1 h
# Procedure: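 Cellular thermal proteome profiling in HeLa cells. Cells were treated with 100 µM lipoamide for 1 h, with or without 1 mM arsenate for a further 1 h, then heated to ten temperatures (37-66.3 °C), and soluble protein was quantified by TMT mass spectrometry relative to 0.1% DMSO controls. The thermal stability score (sum of log2 fold changes minus the abundance score) was transformed to a z-score; mean of n = 3 experiments.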
# 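Further: each temperature applied for 3 min, abundance score taken as mean log2 fold change at the two lowest temperatures, z-score obtained by mean subtraction and division by SD.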
# Sequence of UniProt Q9UK97 (Q9UK97 whole entry): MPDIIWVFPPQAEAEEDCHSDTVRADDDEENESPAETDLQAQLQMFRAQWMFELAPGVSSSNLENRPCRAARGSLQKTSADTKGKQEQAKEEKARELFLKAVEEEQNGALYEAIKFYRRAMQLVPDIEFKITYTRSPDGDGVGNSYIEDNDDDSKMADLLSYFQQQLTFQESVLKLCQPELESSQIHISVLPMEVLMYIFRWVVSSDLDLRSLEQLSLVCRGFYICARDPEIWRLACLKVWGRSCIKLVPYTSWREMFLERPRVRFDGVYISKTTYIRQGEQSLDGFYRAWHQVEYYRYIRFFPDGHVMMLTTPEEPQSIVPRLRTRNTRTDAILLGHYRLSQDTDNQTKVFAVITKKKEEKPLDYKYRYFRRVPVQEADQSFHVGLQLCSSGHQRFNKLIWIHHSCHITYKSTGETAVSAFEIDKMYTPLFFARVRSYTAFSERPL
# Sequence of UniProt Q96RG2 (Q96RG2 whole entry): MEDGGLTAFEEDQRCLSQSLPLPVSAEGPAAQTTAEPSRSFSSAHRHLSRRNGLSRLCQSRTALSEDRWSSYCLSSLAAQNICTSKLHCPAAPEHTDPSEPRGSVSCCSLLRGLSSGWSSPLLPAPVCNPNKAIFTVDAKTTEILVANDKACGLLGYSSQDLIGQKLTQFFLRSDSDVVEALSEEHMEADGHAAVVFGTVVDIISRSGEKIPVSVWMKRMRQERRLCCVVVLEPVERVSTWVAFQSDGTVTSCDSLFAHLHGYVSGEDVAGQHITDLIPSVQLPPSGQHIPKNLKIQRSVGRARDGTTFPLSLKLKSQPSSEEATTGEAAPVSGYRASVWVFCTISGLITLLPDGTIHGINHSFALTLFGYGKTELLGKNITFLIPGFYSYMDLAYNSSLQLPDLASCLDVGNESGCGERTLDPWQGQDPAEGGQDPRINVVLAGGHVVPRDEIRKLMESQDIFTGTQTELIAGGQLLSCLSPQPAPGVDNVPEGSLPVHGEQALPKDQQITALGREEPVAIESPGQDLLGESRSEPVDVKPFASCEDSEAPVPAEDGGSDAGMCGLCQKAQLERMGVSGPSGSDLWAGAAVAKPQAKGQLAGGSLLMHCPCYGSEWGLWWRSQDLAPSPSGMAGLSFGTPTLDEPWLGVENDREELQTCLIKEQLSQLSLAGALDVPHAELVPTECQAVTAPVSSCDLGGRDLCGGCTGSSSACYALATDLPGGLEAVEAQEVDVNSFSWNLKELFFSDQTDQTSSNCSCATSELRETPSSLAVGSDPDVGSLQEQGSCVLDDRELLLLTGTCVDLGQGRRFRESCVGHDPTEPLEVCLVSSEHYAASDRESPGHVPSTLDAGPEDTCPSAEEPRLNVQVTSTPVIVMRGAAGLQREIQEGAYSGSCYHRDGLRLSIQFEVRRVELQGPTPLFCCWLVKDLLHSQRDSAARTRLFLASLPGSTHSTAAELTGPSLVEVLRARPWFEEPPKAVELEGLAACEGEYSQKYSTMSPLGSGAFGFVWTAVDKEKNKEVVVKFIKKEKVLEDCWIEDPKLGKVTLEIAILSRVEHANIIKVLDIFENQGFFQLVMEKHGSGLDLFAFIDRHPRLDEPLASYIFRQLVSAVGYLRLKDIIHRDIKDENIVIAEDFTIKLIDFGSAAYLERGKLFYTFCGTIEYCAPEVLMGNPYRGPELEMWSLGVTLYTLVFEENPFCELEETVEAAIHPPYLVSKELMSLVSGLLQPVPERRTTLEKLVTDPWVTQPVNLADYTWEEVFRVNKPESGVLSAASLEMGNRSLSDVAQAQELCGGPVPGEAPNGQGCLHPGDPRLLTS
# Sequence of UniProt Q2NL82 (Q2NL82 whole entry): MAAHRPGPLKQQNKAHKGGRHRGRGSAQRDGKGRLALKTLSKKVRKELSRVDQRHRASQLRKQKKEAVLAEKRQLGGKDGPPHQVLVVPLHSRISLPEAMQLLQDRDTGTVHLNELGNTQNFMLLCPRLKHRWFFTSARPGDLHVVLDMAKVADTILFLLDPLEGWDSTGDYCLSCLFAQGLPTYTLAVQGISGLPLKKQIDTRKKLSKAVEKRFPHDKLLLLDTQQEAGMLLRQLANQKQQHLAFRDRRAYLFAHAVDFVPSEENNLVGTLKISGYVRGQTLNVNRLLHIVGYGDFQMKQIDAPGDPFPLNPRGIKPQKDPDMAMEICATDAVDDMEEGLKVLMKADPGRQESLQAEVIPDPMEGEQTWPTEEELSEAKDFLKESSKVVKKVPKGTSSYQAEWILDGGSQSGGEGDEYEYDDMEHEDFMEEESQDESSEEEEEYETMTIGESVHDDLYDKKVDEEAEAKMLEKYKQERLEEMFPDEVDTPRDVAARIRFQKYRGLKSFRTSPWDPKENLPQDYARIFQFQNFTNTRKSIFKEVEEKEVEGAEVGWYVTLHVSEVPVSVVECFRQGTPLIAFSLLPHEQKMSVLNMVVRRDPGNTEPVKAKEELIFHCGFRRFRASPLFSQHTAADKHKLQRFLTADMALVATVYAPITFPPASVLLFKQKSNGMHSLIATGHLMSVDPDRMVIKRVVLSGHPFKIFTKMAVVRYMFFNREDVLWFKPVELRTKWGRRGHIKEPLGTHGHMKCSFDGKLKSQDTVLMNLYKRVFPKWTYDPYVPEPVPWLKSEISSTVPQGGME
# Sequence of UniProt O95672 (O95672 whole entry): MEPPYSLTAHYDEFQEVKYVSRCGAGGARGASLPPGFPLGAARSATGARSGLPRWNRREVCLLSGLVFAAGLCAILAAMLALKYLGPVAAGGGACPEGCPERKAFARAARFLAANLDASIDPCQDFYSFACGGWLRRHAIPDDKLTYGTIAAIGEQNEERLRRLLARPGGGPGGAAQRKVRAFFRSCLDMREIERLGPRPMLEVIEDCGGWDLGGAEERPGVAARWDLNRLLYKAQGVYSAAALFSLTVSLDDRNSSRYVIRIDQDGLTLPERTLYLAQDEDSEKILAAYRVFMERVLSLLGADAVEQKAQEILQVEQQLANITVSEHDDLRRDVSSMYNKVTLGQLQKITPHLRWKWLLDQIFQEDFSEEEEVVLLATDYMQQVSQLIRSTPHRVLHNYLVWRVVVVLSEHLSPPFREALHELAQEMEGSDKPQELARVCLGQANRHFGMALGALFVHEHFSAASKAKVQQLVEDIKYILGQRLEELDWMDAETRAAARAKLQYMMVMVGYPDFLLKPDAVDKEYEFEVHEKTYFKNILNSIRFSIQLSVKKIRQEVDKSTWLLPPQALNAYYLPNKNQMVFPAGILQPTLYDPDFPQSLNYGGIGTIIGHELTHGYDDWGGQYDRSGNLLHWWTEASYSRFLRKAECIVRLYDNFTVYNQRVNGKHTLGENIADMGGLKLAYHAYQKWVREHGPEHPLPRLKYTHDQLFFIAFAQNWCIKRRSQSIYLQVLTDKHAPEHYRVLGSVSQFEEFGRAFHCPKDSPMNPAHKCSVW
# Sequence of UniProt Q9BQI0 (Q9BQI0 whole entry): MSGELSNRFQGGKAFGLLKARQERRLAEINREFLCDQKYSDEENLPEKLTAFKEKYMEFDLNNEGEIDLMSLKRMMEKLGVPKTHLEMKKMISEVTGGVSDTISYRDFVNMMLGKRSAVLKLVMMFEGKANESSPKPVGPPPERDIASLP
# Sequence of UniProt P11586 (P11586 whole entry): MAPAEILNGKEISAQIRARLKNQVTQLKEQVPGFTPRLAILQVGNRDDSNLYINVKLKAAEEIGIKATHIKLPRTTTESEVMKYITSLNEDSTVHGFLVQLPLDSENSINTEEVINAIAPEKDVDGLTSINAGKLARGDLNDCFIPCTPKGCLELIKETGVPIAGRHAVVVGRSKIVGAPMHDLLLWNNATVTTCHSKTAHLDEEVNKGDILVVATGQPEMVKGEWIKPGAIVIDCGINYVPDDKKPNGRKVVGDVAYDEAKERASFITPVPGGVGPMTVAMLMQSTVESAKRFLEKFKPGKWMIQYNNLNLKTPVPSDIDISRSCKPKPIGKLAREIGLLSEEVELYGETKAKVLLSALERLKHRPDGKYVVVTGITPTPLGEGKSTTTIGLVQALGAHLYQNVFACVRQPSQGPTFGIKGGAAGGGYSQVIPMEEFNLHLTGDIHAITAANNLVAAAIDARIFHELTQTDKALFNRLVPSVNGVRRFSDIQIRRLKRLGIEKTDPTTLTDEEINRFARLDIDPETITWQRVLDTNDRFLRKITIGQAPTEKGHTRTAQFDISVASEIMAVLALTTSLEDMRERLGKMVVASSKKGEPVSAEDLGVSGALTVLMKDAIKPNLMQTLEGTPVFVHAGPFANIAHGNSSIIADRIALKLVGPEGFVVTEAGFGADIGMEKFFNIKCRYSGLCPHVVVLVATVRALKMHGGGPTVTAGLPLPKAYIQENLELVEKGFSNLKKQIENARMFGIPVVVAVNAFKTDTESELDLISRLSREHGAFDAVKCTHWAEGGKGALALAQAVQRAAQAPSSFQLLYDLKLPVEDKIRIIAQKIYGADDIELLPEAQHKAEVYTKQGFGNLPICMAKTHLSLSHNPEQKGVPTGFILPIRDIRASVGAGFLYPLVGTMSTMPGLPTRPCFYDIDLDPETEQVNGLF
# Sequence of UniProt Q9BT17 (Q9BT17 whole entry): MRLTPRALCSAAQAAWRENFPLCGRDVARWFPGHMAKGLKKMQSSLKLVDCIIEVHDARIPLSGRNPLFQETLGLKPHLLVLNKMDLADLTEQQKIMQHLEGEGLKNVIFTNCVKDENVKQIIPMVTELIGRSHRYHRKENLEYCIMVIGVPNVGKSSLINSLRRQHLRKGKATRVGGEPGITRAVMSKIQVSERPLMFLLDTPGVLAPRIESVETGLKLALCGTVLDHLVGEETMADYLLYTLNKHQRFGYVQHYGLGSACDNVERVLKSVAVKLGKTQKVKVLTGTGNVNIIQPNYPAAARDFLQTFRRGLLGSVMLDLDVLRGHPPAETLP
# Sequence of UniProt Q14696 (Q14696 whole entry): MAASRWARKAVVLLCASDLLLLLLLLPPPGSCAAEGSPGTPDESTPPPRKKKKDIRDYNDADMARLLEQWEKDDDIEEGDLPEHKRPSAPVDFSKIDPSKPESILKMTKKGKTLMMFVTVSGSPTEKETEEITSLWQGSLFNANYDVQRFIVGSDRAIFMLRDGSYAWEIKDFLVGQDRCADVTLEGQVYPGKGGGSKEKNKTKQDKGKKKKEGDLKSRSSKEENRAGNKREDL
row,Target,thermal stability z-score
1,DENND4C (UniProt Q5VZ89),0.201
2,MTG1 (UniProt Q9BT17),0.0673
3,PIK3CB (UniProt P42338),-0.054
4,TMCO4 (UniProt Q5TGY1),-0.342
5,TIPRL (UniProt O75663),-0.215
6,PPP2R5C (UniProt Q13362),1.38
7,COPZ1 (UniProt P61923),-0.374
8,KIF2C (UniProt Q99661),-0.47
9,POLRMT (UniProt O00411),0.314
10,INPP5B (UniProt P32019),-0.146
11,RBFOX2 (UniProt O43251),-0.112
12,USP32 (UniProt Q8NFA0),-0.102
13,S100A6 (UniProt P06703),1.78
14,MRPS34 (UniProt P82930),-0.835
15,TSR1 (UniProt Q2NL82),-0.39
16,TRABD2A (UniProt Q86V40),-0.806
17,EIF2S2 (UniProt P20042),0.121
18,FBXO9 (UniProt Q9UK97),-0.495
19,RPE (UniProt Q96AT9),0.536
20,MRPL23 (UniProt Q16540),0.205
21,AIF1L (UniProt Q9BQI0),-0.218
22,TNS3 (UniProt Q68CZ2),0.341
23,ECEL1 (UniProt O95672),-1.25
24,NVL (UniProt O15381),-0.0288

row,Target,thermal stability z-score
1,TRIM28 (UniProt Q13263),-0.138
2,POLR2L (UniProt P62875),1.27
3,ABCA2 (UniProt Q9BZC7),0.0542
4,NEFH (UniProt P12036),-0.156
5,MTHFD1 (UniProt P11586),0.565
6,TARDBP (UniProt Q13148),0.125
7,PDP1 (UniProt Q9P0J1),0.0374
8,HACD2 (UniProt Q6Y1H2),-0.673
9,MESDC2 (UniProt Q14696),-1.36
10,OAT (UniProt P04181),-0.684
11,PASK (UniProt Q96RG2),0.103
12,STK26 (UniProt Q9P289),0.681
13,LARP4 (UniProt Q71RC2),-0.463
14,TIPIN (UniProt Q9BVW5),-0.58
15,MRPL35 (UniProt Q9NZE8),-0.257
16,HEG1 (UniProt Q9ULI3),-0.842
17,SMOC1 (UniProt Q9H4F8),-0.587
18,PTMA (UniProt P06454),1.3
19,UBXN4 (UniProt Q92575),-0.125
20,SYF2 (UniProt O95926),1.83
21,CCND3 (UniProt P30281),0.241
22,NDUFB10 (UniProt O96000),-0.509
23,SLC11A2 (UniProt P49281),-1.6
24,CHID1 (UniProt Q9BWS9),-3.11

row,Target,thermal stability z-score
1,CNBP (UniProt P62633),0.317
2,PTTG1IP (UniProt P53801),-0.059
3,SLC38A10 (UniProt Q9HBR0),0.639
4,DPYD (UniProt Q12882),0.0898
5,ANKRD13A (UniProt Q8IZ07),0.0649
6,PEX13 (UniProt Q92968),0.444
7,FBXO2 (UniProt Q9UK22),-0.743
8,EEF2KMT (UniProt Q96G04),0.0521
9,NPC2 (UniProt P61916),0.0993
10,MED7 (UniProt O43513),-0.0337
11,DLD (UniProt P09622),0.662
12,RACGAP1 (UniProt Q9H0H5),-0.198
13,FAM60A (UniProt Q9NP50),0.0806
14,RPL13 (UniProt P26373),-0.064
15,CSNK2B (UniProt P67870),1.66
16,IGF2BP2 (UniProt Q9Y6M1),-0.00758
17,DTX3L (UniProt Q8TDB6),-0.78
18,ABHD14B (UniProt Q96IU4),1.24
19,FAHD1 (UniProt Q6P587),0.565
20,TRIP4 (UniProt Q15650),0.243
21,FAM96B (UniProt Q9Y3D0),-0.113
22,SCAP (UniProt Q12770),-1.13
23,OSBPL8 (UniProt Q9BZF1),-1.47

# Same assay, conditions: HeLa; lipoamide concentration 100 µM; arsenate co-treatment: none
row,Target,thermal stability z-score
1,DENND4C (UniProt Q5VZ89),0.677
2,MTG1 (UniProt Q9BT17),0.0916
3,PIK3CB (UniProt P42338),-0.193
4,TMCO4 (UniProt Q5TGY1),-0.363
5,TIPRL (UniProt O75663),-0.0559
6,PPP2R5C (UniProt Q13362),0.649
7,COPZ1 (UniProt P61923),0.0476
8,KIF2C (UniProt Q99661),-0.0787
9,POLRMT (UniProt O00411),-0.744
10,INPP5B (UniProt P32019),-0.514
11,RBFOX2 (UniProt O43251),0.314
12,USP32 (UniProt Q8NFA0),-0.19
13,S100A6 (UniProt P06703),0.967
14,MRPS34 (UniProt P82930),-0.044
15,TSR1 (UniProt Q2NL82),0.00573
16,TRABD2A (UniProt Q86V40),-1.21
17,EIF2S2 (UniProt P20042),0.0416
18,FBXO9 (UniProt Q9UK97),-1.62

row,Target,thermal stability z-score
1,RPE (UniProt Q96AT9),0.285
2,MRPL23 (UniProt Q16540),0.755
3,AIF1L (UniProt Q9BQI0),-0.305
4,TNS3 (UniProt Q68CZ2),0.204
5,ECEL1 (UniProt O95672),-0.891
6,NVL (UniProt O15381),-0.0652
7,TRIM28 (UniProt Q13263),0.0166
8,POLR2L (UniProt P62875),0.782
9,ABCA2 (UniProt Q9BZC7),0.0722
10,NEFH (UniProt P12036),-0.292
11,MTHFD1 (UniProt P11586),0.406
12,TARDBP (UniProt Q13148),0.504
13,PDP1 (UniProt Q9P0J1),-0.191
14,HACD2 (UniProt Q6Y1H2),-0.4
15,MESDC2 (UniProt Q14696),-1.28
16,OAT (UniProt P04181),-0.588
17,PASK (UniProt Q96RG2),0.0323
